7 compounds from ChEMBL document CHEMBL6103633 (J Med Chem, 2025) can be followed below.

Calls of active or inactive are those of the source. No cut-off for these calls is given here.

Series [1] has as its target T1, Ornithine decarboxylase (Homo sapiens) (UniProt P11926).
T1 sequence (whole entry): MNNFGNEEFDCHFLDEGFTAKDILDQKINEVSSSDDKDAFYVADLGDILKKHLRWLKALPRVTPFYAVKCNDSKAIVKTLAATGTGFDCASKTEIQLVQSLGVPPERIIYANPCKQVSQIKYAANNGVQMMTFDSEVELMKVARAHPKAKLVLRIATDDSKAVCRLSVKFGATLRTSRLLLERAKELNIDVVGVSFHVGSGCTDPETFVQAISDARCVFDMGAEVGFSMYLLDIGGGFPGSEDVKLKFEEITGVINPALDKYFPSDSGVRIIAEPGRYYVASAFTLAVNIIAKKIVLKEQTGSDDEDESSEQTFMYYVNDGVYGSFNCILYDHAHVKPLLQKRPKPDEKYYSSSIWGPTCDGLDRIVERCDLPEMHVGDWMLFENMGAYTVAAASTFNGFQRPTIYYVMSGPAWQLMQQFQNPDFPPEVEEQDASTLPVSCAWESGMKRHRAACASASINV
Description: Inhibition of full length C-terminal his-6 tagged human ODC extracted from Escherichia coli BL21 (DE3) cells at 50 uM incubated for 30 mins by liquid scintillation analysis relative to control.

The nature of series [2]: Dissociation constant, pKa of the compound. In kind it is physicochemical.
Series [3] deals with T1, Ornithine decarboxylase (Homo sapiens). Description: Inhibition of ODC in human Kelly cells at 500 uM incubated for 2 hrs by liquid scintillation analysis. The class given is cell-based.
For series [4] the target is unchanged. Description: Inhibition of ODC in human Kelly cells assessed as reduction in spermidine level at 500 microM incubated for 20 min by HPLC analysis. The class given is cell-based.
The target is the same in series [5]. Put plainly: Inhibition of human ODC in human Kelly cells assessed as reduction in spermine level at 500 microM incubated for 20 min by HPLC analysis. In kind it is cell-based.
Series [6] shares this target. Description: Inhibition of human ODC in human Kelly cells assessed as effect on putrescine level at 500 microM incubated for 20 min by HPLC analysis. In kind it is cell-based.
The nature of series [7]: Cytotoxicity against Normal primary human neonatal fibroblast cell at 500 uM incubated for 72 hrs by SRB assay relative to control. In kind it is toxicity, cell-based.

Take `NOCC1CNC1`: the inhibition in series [1] was 0%.

As to `Cc1ncc(COP(=O)(O)O)c(/C=N/OCCCN)c1O`, in series [2], the pKa is roughly 5.9.

Consider `NCCC[C@](N)(C(=O)O)C(F)F`, for which the inhibition result in series [3], in series [4] and in series [5] was “Active” each time. Further, in series [6], the inhibition entry is “inactive”.

Turning to `NOCC1(F)CCNC1` (racemic), the inhibition entry in series [3], in series [4] and in series [5] was “Active” in each case. Further, in series [6], the inhibition entry is “inactive”.

Consider `NCCCON`, for which the inhibition result in series [3], in series [4] and in series [5] was “Active” each time. Besides, the inhibition entry in series [6] is “inactive”.

As for `NOC[C@H]1CCCNC1`, in series [7], the Activity stood at 0%.

In the case of `NOC[C@@H]1CCCNC1`, the Activity in series [7] was 0%.
